Measurements as given in patent US20210285933A1, “HIGH THROUGHPUT DRUG SCREENING OF CANCER STEM CELLS” (UNIVERSITY OF WASHINGTON, priority 2018, published 2021).

Legend:
[1] = test system: leukemia stem cells (LSCs) CD34+CD38low or negCD123+ from AML patient samples; assay: High throughput functional drug screen (72-hour exposure, CellTiter Glo viability) on FACS sorted LSCs; assay type: cell-based, human; design: AUC Stem Mean: unit not given here; conditions: for Effectiveness vs. LSCs (AUCstem mean < mitomycin C AUCblast mean, p<0.1): aggregate viability data of patient samples, in vitro 72 h
Experimental: Isolation of blasts and FACS isolation of LSCs: CD34+ blasts were enriched to >90% using immunomagnetic beads (QuadroMACS). Fluorescence activated cell sorting was performed in a biosafety cabinet enclosed FACS-Aria II (Becton-Dickinson; San Jose, Calif.) housed in the University of Washington Core Cell Analysis Facility where voltage was standardized and calibration was performed daily. Mononuclear cells were stained with allophycocyanin H7 (APC-H7) conjugated anti-human CD45, allophycocyanin (APC) conjugated anti-human CD34, phycoerythrin-Cy7 (PE-Cy7) conjugated anti-human CD38 and phycoerythrin (PE) conjugated anti-human CD123 (all from BD Biosciences Pharmingen, San Jose, Calif.). Initially a blast gate was applied for forward scatter vs. side scatter, then sequential gates for CD45 vs. side scatter, CD34+ and CD38^low or neg, then CD123+ cells to yield the LSCs. The CD38low population was defined by CD38 above the isotype control and below that of mature precursors. Flow cytometry data analysis was performed using FlowJo software (Tree Star, Inc. Ashland, Oreg.).
After overnight incubation on matrix protein coated 384 well plates, drugs were added to each well using a CyBio Well Vario liquid handler (Amalytik Jena). The cell populations were analyzed for survival after a 72-hour exposure to 8 customized drug concentrations (within the range of 5 pM to 100 microM) of each drug spanning 4 logs. Post exposure viability was measured using CellTiter Glo luminescent reagent (Promega, Madison, Wis.) per manufacturer protocol, then the plates were analyzed with the Envision Multi-label plate reader (Perkin Elmer, Waltham, Mass.). XLFit software (IDBS, Guildford, Surrey, United Kingdom) was used to analyze the data and generate dose response curves based on standard 4-parameter logistic fit. For each plate, data were normalized to DMSO 100% viability and blank controls.
Area under the curve (AUC) was calculated for each dose response curve. For the 4 patient samples, two-sample two-tailed t-tests were used for group comparisons of AUC values to determine drug specificity and efficacy.
Drug specificity was defined by group comparisons between AUCs for each drug and cell type across patient samples. […] Group comparisons for categorical variable were completed using Fisher's exact test.

pediatric AML blasts = conditions: literature; cited from earlier work
LSCs = conditions: literature; cited from earlier work
AML = conditions: literature; cited from earlier work

Compound	Effectiveness vs. LSCs (AUCstem mean < mitomycin C AUCblast mean, p<0.1) [1]	AUC Stem Mean ([1]; mean area under dose response curve across patient samples, 72-hour exposure, 8 concentrations)	effect vs. pediatric AML blasts in vitro (pediatric AML blasts)	anti-LSC effect in vitro in prior studies (LSCs)	clinical effect in AML patients (AML)
CO[C@H]1C(=O)[C@]2(C)[C@@H](OC)C[C@H]3OC[C@@]3(OC(C)=O)[C@H]2[C@H](OC(=O)c2ccccc2)[C@]2(O)C[C@H](OC(=O)[C@H](O)[C@@H](NC(=O)OC(C)(C)C)c3ccccc3)C(C)=C1C2(C)C [Cabazitaxel]	effective	0.0031	effective	–	–
CC(C)C[C@H](NC(=O)[C@H](CCc1ccccc1)NC(=O)CN1CCOCC1)C(=O)N[C@@H](Cc1ccccc1)C(=O)N[C@@H](CC(C)C)C(=O)[C@@]1(C)CO1 [Carfilzomib]	not effective	–	–	reduced LSCs in vitro	minimal anti-leukemic effects
